Data from patent US20160000074A1, “HERBICIDAL COMPOSITION AND METHOD OF USE THEREOF” (SYNGENTA PARTICIPATIONS AG, priority 2013, published 2016).

Legend:
Test in all cases: Turf selectivity evaluation, visual phytotoxicity, glasshouse pots
Type in all cases: in vivo
Settings in all cases: visual evaluation 7, 14, 21, 28 DAA
[1] = tested on: Agrostis stolonifera (AGSST, Creeping Bentgrass, Pennlinks)
Experimental: (§1) Turf selectivity evaluations were performed on the most important cool-season turf varieties, across 4 application rates with two replications contained within a factorial design. Sarmentine was applied at 0, 1500, 3000, and 6000 g ai ha^−1 on Sep. 11, 2010 using a spray volume of 800 L ha^−1 with 0.2% V/V x-77 adjuvant. The solution was delivered with LU 90-02S Lechler nozzles at 2.58 bars with an application speed of 0.96 km hr^−1.
(§2) Plants were grown in 9 cm diameter pots using Les Barges soil, previously characterized as containing 25.4% clay; 7.1% loam, 67.5% sand, 7% CaCO3, 2.4% organic matter, and pH 7.5. Pots were fertilized with Oscarna Rasaflor at 100 g m-2 at seeding. Plants were grown throughout the experiment with day/night temperatures of 23° C./15° C. with relative humidity of between 50-60%.
(§3) Turf species (Table 1) were visually evaluated for symptoms of phytotoxicity (%) using the untreated control as a bench-mark for comparison at 7, 14, 21, and 28 days after application (DAA). Turfgrass species were mown at 13 DAA.

[2] = tested on: Poa annua var. Reptans (POAAN, Annual bluegrass, True Putt)
Experimental: as §1, §2, §3

[3] = tested on: Festuca arundinacea (FESAR, Tall Fescue, Farandole)
Experimental: as §1, §2, §3

[4] = tested on: Lolium perenne (LOLPE, Perennial Ryegrass, Citation Fore)
Experimental: as §1, §2, §3

[5] = tested on: Poa pratensis (POAPR, Kentucky Bluegrass, Midnight star)
Experimental: as §1, §2, §3

[6] = rate 1500 g ai ha^-1, grass x rate estimate
[7] = rate 3000 g ai ha^-1, grass x rate estimate
[8] = rate 6000 g ai ha^-1, grass x rate estimate

CCCCC/C=C/C=C/C(=O)N1CCCC1 [sarmentine, N-(2E,4E-Decadienoyl)pyrrolidine]
Phyto-toxicity Estimate (% of Untreated) [1, 6]: 13.1 % of Untreated
Phyto-toxicity Estimate (% of Untreated) [1, 7]: 19.4 % of Untreated
Phyto-toxicity Estimate (% of Untreated) [1, 8]: 27.5 % of Untreated
Phyto-toxicity Estimate (% of Untreated) [2, 6]: 35.0 % of Untreated
Phyto-toxicity Estimate (% of Untreated) [2, 7]: 53.8 % of Untreated
Phyto-toxicity Estimate (% of Untreated) [2, 8]: 83.1 % of Untreated
Phyto-toxicity Estimate (% of Untreated) [3, 6]: 14.1 % of Untreated
Phyto-toxicity Estimate (% of Untreated) [3, 7]: 22.8 % of Untreated
Phyto-toxicity Estimate (% of Untreated) [3, 8]: 31.3 % of Untreated
Phyto-toxicity Estimate (% of Untreated) [4, 6]: 15.3 % of Untreated
Phyto-toxicity Estimate (% of Untreated) [4, 7]: 27.2 % of Untreated
Phyto-toxicity Estimate (% of Untreated) [4, 8]: 46.3 % of Untreated
Phyto-toxicity Estimate (% of Untreated) [5, 6]: 6.3 % of Untreated
Phyto-toxicity Estimate (% of Untreated) [5, 7]: 8.8 % of Untreated
Phyto-toxicity Estimate (% of Untreated) [5, 8]: 21.3 % of Untreated
